Measured values from patent US20260297080A1, “BICYCLIC COMPOUNDS AS CDK INHIBITORS” (BeOne Medicines I GmbH, priority 2022, published 2026).

Tests used:
CDK2/Cyclin E1 [1] = target: T1, CDK2/Cyclin E1 (Homo sapiens, UniProt P24941); experiment: CDK2/Cyclin E1 Biochemical Assay (TR-FRET), 1 mM ATP; settings: 0.15 μM Rb (Ser780)-biotin substrate, pH7.0, 60 min preincubation, 90 min reaction, room temperature
Experimental: (§1) CDK2/Cyclin E1 and CDK1/Cyclin B1 Biochemical Assays
(§2) Compounds disclosed herein were tested for inhibition of CDK2/Cyclin E1 or CDK1/Cyclin B1 kinase in an assay based on the time-resolved fluorescence-resonance energy transfer (TR-FRET) methodology. The assay was carried out in 384-well low volume black plates in a reaction mixture containing CDK2/Cyclin E1 or CDK1/Cyclin B1, 1 mM ATP for CDK2/Cyclin E1 and CDK1/Cyclin B1, 0.15 μM Rb (Ser780)-biotin substrate and 0-10 μM compound in buffer containing 50 mM HEPES pH7.0, 0.02% NaN3, 0.01% BSA, 0.1 mM Orthovanadate, 50 mM MgCl2, 1 mM DTT and 0.005% Tween-20. The kinase was incubated with compound for 60 minutes at room temperature and the reaction was initiated by the addition of ATP and Rb (Ser780)-biotin substrate. After reaction at room temperature for 90 minutes, an equal volume of stop/detection solution was added according to the manufacture's instruction (Cisbio Bioassays). The stop/detection solution contained Streptavidin-XL665 and Anti-pRb (Ser780) mAb-Eu Cryptate in Detection buffer (Cisbio Bioassays). Plates were incubated at room temperature for 60 minutes, and the TR-FRET signals (ex337 nm, em665 nm/620 nm) were recorded on a PHERAstar FSX plate reader (BMG Labtech). The inhibition percentage of CDK2/Cyclin E1 or CDK1/Cyclin B1 kinase activity in presence of increasing concentrations of compounds was calculated based on the ratio of fluorescence at 665 nm to that at 620 nm. The IC50 for each compound was derived from fitting the data to the four-parameter logistic equation by Dotmatics.

CDK1/Cyclin B1 [2] = target: T2, CDK1/Cyclin B1 (Homo sapiens, UniProt P06493); experiment: CDK1/Cyclin B1 Biochemical Assay (TR-FRET), 1 mM ATP; settings: 0.15 μM Rb (Ser780)-biotin substrate, pH7.0, 60 min preincubation, 90 min reaction, room temperature
T2 sequence (P06493 whole entry): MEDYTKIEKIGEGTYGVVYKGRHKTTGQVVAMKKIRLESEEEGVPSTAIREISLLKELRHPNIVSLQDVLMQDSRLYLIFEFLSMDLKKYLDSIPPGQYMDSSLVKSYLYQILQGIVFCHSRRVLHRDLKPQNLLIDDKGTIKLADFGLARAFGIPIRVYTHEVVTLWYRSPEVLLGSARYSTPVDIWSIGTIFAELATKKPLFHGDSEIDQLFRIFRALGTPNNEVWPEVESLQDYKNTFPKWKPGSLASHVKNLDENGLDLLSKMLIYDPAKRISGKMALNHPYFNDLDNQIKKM
T2 sequence (P14635 whole entry partner): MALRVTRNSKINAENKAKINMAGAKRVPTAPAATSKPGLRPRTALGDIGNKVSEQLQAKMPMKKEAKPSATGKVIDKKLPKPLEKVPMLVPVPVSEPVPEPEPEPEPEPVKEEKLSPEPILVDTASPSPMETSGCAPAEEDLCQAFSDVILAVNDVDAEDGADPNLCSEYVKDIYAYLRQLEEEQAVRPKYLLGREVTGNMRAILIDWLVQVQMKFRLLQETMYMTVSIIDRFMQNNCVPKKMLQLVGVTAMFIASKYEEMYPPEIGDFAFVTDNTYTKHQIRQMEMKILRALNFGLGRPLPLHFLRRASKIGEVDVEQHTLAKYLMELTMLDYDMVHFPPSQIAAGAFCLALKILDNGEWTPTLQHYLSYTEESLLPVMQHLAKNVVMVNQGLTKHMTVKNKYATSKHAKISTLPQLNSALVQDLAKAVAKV
Experimental: as §1, §2

CDK1/Cyclin B1 [3] = target: T2, CDK1/Cyclin B1; experiment: CDK1/Cyclin B1 Biochemical Assay (TR-FRET), 0.015 mM ATP; settings: 0.15 μM Rb (Ser780)-biotin substrate, pH7.0, 60 min preincubation, 120 min reaction, room temperature
Summary of the method: (§3)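 Percent inhibition was derived from the 665 nm/620 nm TR-FRET ratio after a 120-minute room-temperature reaction on 0.15 μM Rb (Ser780)-biotin, preceded by 60-minute enzyme–compound preincubation. IC50 came from four-parameter logistic fitting.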

CDK2/Cyclin E1 [4] = target: T1, CDK2/Cyclin E1; experiment: CDK2/Cyclin E1 Biochemical Assay (TR-FRET), 0.060 mM ATP; settings: 0.15 μM Rb (Ser780)-biotin substrate, pH7.0, 60 min preincubation, 120 min reaction, room temperature
Summary of the method: as §3

| SMILES | IC50 (CDK2/Cyclin E1 [1]) | IC50 (CDK1/Cyclin B1 [2]) | IC50 (CDK1/Cyclin B1 [3]) | IC50 (CDK2/Cyclin E1 [4]) |
| --- | --- | --- | --- | --- |
| CCC(=O)CNC(=O)O[C@H]1CC[C@@H](c2cc(Nc3ccc4c(c3F)CS(=O)(=O)N4)n[nH]2)C1 (relative stereo) [Example 432, cis-3-(3-((4-fluoro-2,2-dioxido-1,3-dihydrobenzo[c]isothiazol-5-yl)amino)-1H-pyrazol-5-yl)cyclopentyl(2-oxobutyl)carbamate] | 23 nM | 1320 nM | – | – |
| CC1(NC(=O)O[C@H]2CC[C@@H](c3cc(Nc4cc5c(cc4F)S(=O)(=O)NC5)n[nH]3)C2)CCOC1 (relative stereo) [Example 450, cis-3-(3-((6-fluoro-1,1-dioxido-2,3-dihydrobenzo[d]isothiazol-5-yl)amino)-1H-pyrazol-5-yl)cyclopentyl(3-methyltetrahydrofuran-3-yl)carbamate] | 7.6 nM | 6180 nM | – | – |
| CC(C)NC(=O)O[C@H]1CC[C@@H](c2cc(Nc3ccc4c(c3F)N(C)S(=O)(=O)N4)n[nH]2)C1 (relative stereo) [Example 466, cis-3-(3-((4-fluoro-3-methyl-2,2-dioxido-1,3-dihydrobenzo[c][1,2,5]thiadiazol-5-yl)amino)-1H-pyrazol-5-yl)cyclopentyl isopropylcarbamate] | 63 nM | > 10000 nM | – | – |
| CC[C@H](C)NC(=O)O[C@H]1CC[C@@H](c2cc(Nc3ccc4c(c3F)CCS(=O)(=O)N4)n[nH]2)C1 (relative stereo) [Example 461, cis-3-(3-((5-fluoro-2,2-dioxido-3,4-dihydro-1H-benzo[c][1,2]thiazin-6-yl)amino)-1H-pyrazol-5-yl)cyclopentyl((S)-sec-butyl)carbamate] | 0.3 nM | 271 nM | – | – |
| CN(C(=O)O[C@H]1CC[C@@H](c2cc(Nc3ccc4c(c3F)CNS4(=O)=O)n[nH]2)C1)C1CCOC1 (relative stereo) [Example 437, cis-3-(3-((4-fluoro-1,1-dioxido-2,3-dihydrobenzo[d]isothiazol-5-yl)amino)-1H-pyrazol-5-yl)cyclopentyl methyl(tetrahydrofuran-3-yl)carbamate] | 249 nM | > 10000 nM | – | – |
| CC(C)NC(=O)O[C@H]1CC[C@@H](c2cc(Nc3ccc4c(c3F)NS(=O)(=O)N4C)n[nH]2)C1 (relative stereo) [Example 467, cis-3-(3-((4-fluoro-1-methyl-2,2-dioxido-1,3-dihydrobenzo[c][1,2,5]thiadiazol-5-yl)amino)-1H-pyrazol-5-yl)cyclopentyl isopropylcarbamate] | 530 nM | > 10000 nM | – | – |
| O=C(NCCC(F)(F)F)O[C@H]1CC[C@@H](c2cc(Nc3ccc4c(c3F)CS(=O)(=O)N4)n[nH]2)C1 (relative stereo) [Example 438, cis-3-(3-((4-fluoro-2,2-dioxido-1,3-dihydrobenzo[c]isothiazol-5-yl)amino)-1H-pyrazol-5-yl)cyclopentyl(3,3,3-trifluoropropyl)carbamate] | 4.7 nM | 583 nM | – | – |
| O=C(NC1CCOC1)O[C@H]1CC[C@@H](c2cc(Nc3ccc4c(c3)CS(=O)(=O)N4)n[nH]2)C1 (relative stereo) [Example 428, cis-3-(3-((2,2-dioxido-1,3-dihydrobenzo[c]isothiazol-5-yl)amino)-1H-pyrazol-5-yl)cyclopentyl(tetrahydrofuran-3-yl)carbamate] | 21 nM | 4850 nM | – | – |
| CC(C)NC(=O)O[C@H]1CC[C@@H](c2cc(Nc3ccc4c(c3F)CN(C(C)C3COC3)S4(=O)=O)n[nH]2)C1 (relative stereo) [Example 104, cis-3-(3-((4-fluoro-2-(1-(oxetan-3-yl)ethyl)-1,1-dioxido-2,3-dihydrobenzo[d]isothiazol-5-yl)amino)-1H-pyrazol-5-yl)cyclopentyl isopropylcarbamate] | – | – | 244 nM | 5.7 nM |
| COCC(C)NC(=O)O[C@H]1CC[C@@H](c2cc(Nc3ccc4c(c3)CS(=O)(=O)N4)n[nH]2)C1 (relative stereo) [Example 197, cis-3-(3-((2,2-dioxido-1,3-dihydrobenzo[c]isothiazol-5-yl)amino)-1H-pyrazol-5-yl)cyclopentyl(1-methoxypropan-2-yl)carbamate] | – | – | 119 nM | 12 nM |
| O=C(NCCC(F)(F)F)O[C@@H]1CC[C@H](c2cc(Nc3ccc4c(c3)CS(=O)(=O)N4)n[nH]2)C1 (relative stereo) [Example 198, cis-3-(3-((2,2-dioxido-1,3-dihydrobenzo[c]isothiazol-5-yl)amino)-1H-pyrazol-5-yl)cyclopentyl(3,3,3-trifluoropropyl)carbamate] | – | – | 75 nM | 18 nM |

Other lines, results leading:

| IC50 (CDK2/Cyclin E1 [1]) | IC50 (CDK1/Cyclin B1 [2]) | IC50 (CDK1/Cyclin B1 [3]) | IC50 (CDK2/Cyclin E1 [4]) | SMILES |
| --- | --- | --- | --- | --- |
| 2.3 nM | 3250 nM | – | – | O=C(NC12CC(C1)C2)O[C@H]1CC[C@@H](c2cc(Nc3cc4c(cc3F)S(=O)(=O)NC4)n[nH]2)C1 (single isomer, unassigned) [Example 422a, cis-3-(3-((6-fluoro-1,1-dioxido-2,3-dihydrobenzo[d]isothiazol-5-yl)amino)-1H-pyrazol-5-yl)cyclopentyl bicyclo[1.1.1]pentan-1-ylcarbamate] |
| 8.9 nM | 1380 nM | – | – | CC(C)NC(=O)O[C@H]1CC[C@@H](c2cc(Nc3ccc4c(c3F)CS(=O)(=O)N4CC(C)(C)O)n[nH]2)C1 (single isomer, unassigned) [Example 254b, cis-3-(3-((4-fluoro-1-(2-hydroxy-2-methylpropyl)-2,2-dioxido-1,3-dihydrobenzo[c]isothiazol-5-yl)amino)-1H-pyrazol-5-yl)cyclopentyl isopropylcarbamate] |
| 1.5 nM | 863 nM | – | – | CC(C)(CO)NC(=O)O[C@H]1CC[C@@H](c2cc(Nc3ccc4c(c3F)CS(=O)(=O)N4C3CC3)n[nH]2)C1 (single isomer, unassigned) [Example 363b, cis-3-(3-((1-cyclopropyl-4-fluoro-2,2-dioxido-1,3-dihydrobenzo[c]isothiazol-5-yl)amino)-1H-pyrazol-5-yl)cyclopentyl(1-hydroxy-2-methylpropan-2-yl)carbamate] |
| 18 nM | 1450 nM | – | – | CCCNC(=O)O[C@H]1CC[C@@H](c2cc(Nc3ccc4c(c3F)CS(=O)(=O)N4CC(C)(C)O)n[nH]2)C1 [Example 433b] |
| 1 nM | 980 nM | – | – | O=C(NC12CC(C1)C2)O[C@H]1CC[C@@H](c2cc(Nc3cc4c(cc3F)S(=O)(=O)NC4)n[nH]2)C1 (single isomer, unassigned) [Example 422b, cis-3-(3-((6-fluoro-1,1-dioxido-2,3-dihydrobenzo[d]isothiazol-5-yl)amino)-1H-pyrazol-5-yl)cyclopentyl bicyclo[1.1.1]pentan-1-ylcarbamate] |
| 3.6 nM | 1770 nM | – | – | CC(C)NC(=O)O[C@@H]1CC[C@H](c2cc(Nc3ccc4c(c3F)CCS(=O)(=O)N4)n[nH]2)C1 (single isomer, unassigned) [Example 430a] |
| – | – | 264 nM | 6.2 nM | O=C(NC1CCC1)O[C@@H]1CC[C@H](c2cc(Nc3ccc4c(c3F)CS(=O)(=O)N4)n[nH]2)C1 (single isomer, unassigned) [Example 399a] |
| – | – | 59 nM | 3 nM | CCCNC(=O)O[C@H]1CC[C@@H](c2cc(Nc3ccc4c(c3F)CS(=O)(=O)N4CCO)n[nH]2)C1 (single isomer, unassigned) [Example 272b, cis-3-(3-((4-fluoro-1-(2-hydroxyethyl)-2,2-dioxido-1,3-dihydrobenzo[c]isothiazol-5-yl)amino)-1H-pyrazol-5-yl)cyclopentyl propylcarbamate] |
| – | – | 390 nM | 26 nM | CCCNC(=O)O[C@H]1CC[C@@H](c2cc(Nc3ccc4c(c3Cl)CNS4(=O)=O)n[nH]2)C1 (single isomer, unassigned) [Example 39b, cis-3-(3-((4-chloro-1,1-dioxido-2,3-dihydrobenzo[d]isothiazol-5-yl)amino)-1H-pyrazol-5-yl)cyclopentyl propylcarbamate] |
| – | – | 799 nM | 5.3 nM | COCC1(NC(=O)O[C@H]2CC[C@@H](c3cc(Nc4ccc5c(c4F)CNS5(=O)=O)n[nH]3)C2)CC1 (single isomer, unassigned) [Example 158a, cis-3-(3-((4-fluoro-1,1-dioxido-2,3-dihydrobenzo[d]isothiazol-5-yl)amino)-1H-pyrazol-5-yl)cyclopentyl(1-(methoxymethyl)cyclopropyl)carbamate] |
